# Test results: patent US20040086896A1, “Polynucleotides and polypeptides associated with the NF-kB pathway” (priority 2001, published 2004)
# B1: IL-1α: IL-1α (Peprotech) cytokine stimulus (protein, UniProt P01583 113-271, looked up)
# Interleukin-1 alpha: SAPFSFLSNVKYNFMRIIKYEFILNDALNQSIIRANDQYLTAAALHNLDEAVKFDMGAYKSSKDDAKITVILRISKTQLYVTAQDEDQPVLLKEMPEIPKTITGSETNLLFFWETHGTKNYFTSVAHPNLFIATKQDYWVCLAGGPPSITDFQILENQA
# Experiments:
# AD037 mRNA [1] = assay: AD037 mRNA by RT-PCR in stimulated synovial fibroblasts; assay type: cell-based; conditions: synovial fibroblasts, 1, 6, or 24 hours; TNFα, IL-1α, IL-17 10 ng/ml, IL-17B-Ig fusion protein 5 ng/ml; FIG. 20
# Procedure: Nonetheless, the following methods were used to assess the expression profile of the NFkB assocaited polypeptides of the present invention. Briefly, poly (A)^+ mRNA was isolated from THP-1 cells that were either unstimulated, or stimulated with 100 ng/ml LPS for two hours in the presence and absence of BMS-205820 (2 uM) using the Fast Track isolation kit (Invitrogen, Carlsbad, Calif.) according to the manufacturer's instructions. RNA quality and quantity were evaluated using UV spectrometry and capillary electrophoresis with the RNA 6000 Assay (Agilent). Five-hundred nanograms of polyA RNA was used for first-strand cDNA synthesis using the SuperScriptTm First-Strand Synthesis System for RT-PCR (Invitrogen) according to the manufacturer's instructions with 250 ng of random hexamers.
# PCR reactions were performed in a total volume of 40 ul containing master mix (SYBR Green I dye, 50 mM Tris-Cl pH 8.3, 75 mM KCl, DMSO, Rox reference dye, 5 mM MgCl2, 2 mM dNTP, I unit Platinum Taq High Fidelity enzyme), 0.5 uM each of forward and reverse gene-specific primers, and cDNA (8 ul of a 1:36 dilution of the first strand reaction mix). For tissue expression analyses, PCR reactions included 2 ul of cDNA derived from the Human Multiple Tissue cDNA panel I and Human Immune System MTC Panel (Clontech, Palo Alto, Calif.). The amplification program consisted of a 10 minute incubation at 95° C., followed by 40 cycles of incubations at 95° C. for 15 seconds, 60° C. for 1 minute. The amplification was followed by melting curve analysis at 60° C. to determine the specificity of the amplification reaction. A negative control without cDNA template was run to assess the overall specificity. The data were analyzed using the TaqMan 5700 software with the threshold value set to 0.5. The message levels of GAPDH were used to normalize the amounts of cDNA for each reaction.
# Synovial fibroblasts were obtained from Cell Applications, INC. […] The levels of each NFkB associated polypeptide mRNA may be measured by RT-PCR analysis using the primers described herein for each gene. […]
# NF-κB pathway = assay: AD037 mRNA by quantitative PCR in THP-1 monocytes, LPS with dexamethasone or IKK-2 inhibitor (FIG. 80); assay type: cell-based, human; conditions: LPS, 2, 4 and 8 hours post stimulation
# Procedure: The figure illustrates the basal AD037 expression in THP-1 monocytes in response to LPS (“LPS”), LPS and the glucocorticoid dexamethasone (“LP/Dex”), or LPS and the IKK-2 inhibitor BMS-345541 (“LPS/345541”), for 2 hours, 4 hours, and 8 afters post stimulation. Unstimulated THP-1 moncytes served as a control. […] Expression data was obtained by measuring the steady state AD037 mRNA levels by quantitative PCR using the PCR primer pair provided as SEQ ID NO:162 and 163 as described herein.
# Moreover, in an effort to further confirm the NF-κB-dependent expression of AD037, two approaches were investigated. In the first approach, additional inhibitors of the NF-κB pathway were used to assess their affect on AD037 expression. Although it has other transcriptional effects, dexamethasone inhibits NF-κB activity via glucocorticoid receptor-mediated transrepression (Reichardt et al. (2001) EMBO J. 20:7168-7173). The compound 4(2′-aminoethyl)amino-1,8-dimethylimidazo(1,2-a) quinoxaline, is a selective IKK-2 inhibitor (International Publication No. WO 02/60386, Published Oct. 10, 2002; Burke et al. (2003) J. Biol. Chem. 278:1450-1456).
# AD037 mRNA [2] = assay: AD037 mRNA by RT-PCR in stimulated THP-1 human monocyte line; assay type: cell-based; conditions: THP-1 cells stimulated for 8, 24, or 48 hours; 100 ng/ml LPS, 10 ng/ml TNFα or 100 units/ml IFN-γ; FIG. 18
# Procedure: Nonetheless, the following methods were used to assess the expression profile of the NFkB assocaited polypeptides of the present invention. Briefly, poly (A)^+ mRNA was isolated from THP-1 cells that were either unstimulated, or stimulated with 100 ng/ml LPS for two hours in the presence and absence of BMS-205820 (2 uM) using the Fast Track isolation kit (Invitrogen, Carlsbad, Calif.) according to the manufacturer's instructions. RNA quality and quantity were evaluated using UV spectrometry and capillary electrophoresis with the RNA 6000 Assay (Agilent). […]
# PCR reactions were performed in a total volume of 40 ul containing master mix (SYBR Green I dye, 50 mM Tris-Cl pH 8.3, 75 mM KCl, DMSO, Rox reference dye, 5 mM MgCl2, 2 mM dNTP, I unit Platinum Taq High Fidelity enzyme), 0.5 uM each of forward and reverse gene-specific primers, and cDNA (8 ul of a 1:36 dilution of the first strand reaction mix). […] The data were analyzed using the TaqMan 5700 software with the threshold value set to 0.5. […]
# The THP-1 human monocyte line was stimulated with 100 ng/ml LPS, 10 ng/ml TNFα (Peprotech, Rocky Hill, N.J.), or 100 units/ml interferon-γ (IFN-γ, Peprotech) for either 8, 24, or 48 hours. […] The levels of each NFkB associated polypeptide mRNA may be measured by RT-PCR analysis using the primers described herein for each gene. […]
Molecule,"AD037 mRNA level (RT-PCR, normalized to GAPDH) (AD037 mRNA [1])",LPS-induced AD037 expression (mRNA) (NF-κB pathway),"LPS-induced AD037 expression (mRNA) (NF-κB pathway; listed as 4(2′-aminoethyl)amino-1,8-dimethylimidazo(1,2-a) quinoxaline)","AD037 mRNA level (RT-PCR, normalized to GAPDH) (AD037 mRNA [2])"
IL-17: IL-17 (R&D Systems) cytokine stimulus,No upregulation,–,–,–
"Cc1ccc2nc(NCCN)c3ncc(C)n3c2c1 [BMS-345541, 4(2′-aminoethyl)amino-1,8-dimethylimidazo(1,2-a) quinoxaline]",–,reduced to control levels,significantly inhibited,–
TNFα,No upregulation,–,–,upregulated
"IFN-γ: interferon-γ (Peprotech), fails to activate the NF-KB pathway",–,–,–,Little upregulation
B1,No upregulation,–,–,–
